From patent US9932479B2, “Dyes and compositions, and processes for using same in analysis of protein aggregation and other applications” (Enzo Biochem, Inc., priority 2009, dated 2018) come the findings set out here.

In one series the target is T1, Hen Egg White Lysozyme (Gallus gallus, UniProt P00698).
T1 construct: Hen egg white lysozyme was solubilized in 10 mM HCl; from tissue; host or cells: hen egg white
Put plainly: Inhibition of Lysozyme aggregation at pH 12.2, S-25/Tol3 readout. Type of series: biochemical. The note with it: 510 μM Chitotriose, 300 μM Lysozyme, aggregation induced at pH 12.2. As to the method: Hen egg white Lysozyme (300 μM) was incubated with or without N,N′,N″-triacetyl-chitotriose (Chitotriose, 510 μM) in 10 mM potassium phosphate, pH 7.3 for 16 hours. Aggregation was induced by 3.5 fold dilution into 50 mM potassium phosphate, pH 12.2. Aggregation was followed by removing an aliquot of the protein and diluting such that the final composition was 20 μM protein, 50 mM potassium phosphate, pH 7, 3 μM S-25 and 3 μM Tol3. Protein was incubated with dye for 15 minutes prior to determining the fluorescence using a BioTek Synergy Mx plate scanner, with excitation setting at 515 nm and emission setting at 603 nm, both with a 9 nm slit-width. The zero time point was taken before dilution to pH 12.2. Readings were taken in at least triplicate in a Greiner μClear black, clear bottom 96-well microplate. Aggregation was followed for several weeks at room temperature (19°-23° C.).

Series [1] deals with T2, recombinant human alpha-synuclein (ASN) aggregate (Homo sapiens, UniProt P37840).
T2 construct: purchased Sigma-Aldrich
Put plainly: Fluorescence excitation and emission spectra of dye in the presence of aggregated alpha-synuclein. Type of series: binding. The conditions noted are these: 1 μM aggregated ASN, 50 mM Tris-HCl, pH 7.8, 10 μM dye. On the procedure: (§1) Fluorescent readings were carried out in 50 mM Tris-HCl, pH 7.8 using 10 μM dye. […] Fluorescence excitation and emission spectra were collected on a Cary Eclipse fluorescence spectrophotometer (Varian, Australia). Fluorescence spectra were measured with excitation and emission slit widths set to 5 nm, and at a constant PMT voltage. Spectroscopic measurements were performed in standard quartz cells. All measurements were made at the respective excitation maxima of each dye. All measurements were carried out at room temperature.

The next series has as its target T3, β-lactoglobulin (BLG) (Bos taurus, UniProt P02754).
T3 sequence (P02754 17-178): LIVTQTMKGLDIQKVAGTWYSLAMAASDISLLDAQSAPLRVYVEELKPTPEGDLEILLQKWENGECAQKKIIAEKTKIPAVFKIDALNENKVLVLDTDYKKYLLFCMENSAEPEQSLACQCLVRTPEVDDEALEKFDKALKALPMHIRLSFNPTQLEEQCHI
Put plainly: Thermal shift assay of BLG aggregation. The note with it: BLG 4 or 16 mg/mL, heating 28° C. to 90° C. It counts as binding. As to the method:
A solution containing 4 or 16 mg/mL of β-lactoglobulin (BLG) and 2×SYPRO® Orange dye (Molecular Probes, supplied as 5000× with unknown concentration) or 4 μM TOL3 or 4 μM S25 was prepared using 1×PBS, pH 7.4 as the dilution buffer. This solution was then loaded into LightCycler® capillaries (20 μL, Roche Diagnostics GmbH). These capillaries were then mounted on the sample holder of a LightCycler® 480 Real-Time PCR System (Roche), programmed to heat from 28° C. to 90° C. at 3° C./min, followed by cooling down to 28° C. at the same rate. The thermal shift curves were achieved by plotting fluorescence intensity vs. temperature. After the heating cycle, protein aggregates were visually apparent.

The subject of series [2] is goat-anti-mouse IgG aggregate. Put plainly: Fluorescence enhancement (aggregate/native IgG) in the presence of excipients. The note with it: for Fluorescence enhancement (aggregate/native IgG): 2.8 μM IgG, 0.625 μM dye. Type of series: binding. As to the method: IgG aggregate was prepared by adjusting 5.83 mg/ml of purified goat-anti-mouse IgG (H&L, Pel Freez, Rogers, Ark.) to pH 2.7 using HCl and incubating at 22° C. for 24 hours. The assay was performed using 2.8 μM IgG, either native or aggregated, and a dye concentration of 0.625 μM. The protein and dye were mixed together for 15 minutes at 22° C., then this was further incubated in the presence of the excipients shown in the table. The fluorescence intensity of S-25, Tol3 and Y2150 were determined with a FLUOstar OPTIMA plate reader (BMG LABTECH) at excitation wavelength of 550 nm and emission wavelength of 610 nm; while the fluorescence intensity for Thioflavin-T was determined using a SpectraMAX GeminiXS (Molecular device, with Softmax Pro 7.0) using an excitation wavelength of 435 nm and emission wavelength of 495 nm. The fluorescence enhancement (aggregate/native IgG) is shown.

The test system of series [3] is Rabbit-anti-goat IgG. Put plainly: Fluorescence response to unfolded versus aggregated IgG in 4.55 M urea. The conditions noted are these: 6.67 μM Tol3. Type of series: binding. As to the method:
(B) A solution containing aggregated IgG (formed as in Example 13 (B)) or monomeric IgG at 0.033 mg/mL, 4.55 M urea and 6.67 μM Tol3 was prepared and transferred into a microplate. After incubating at 4° C. degree for about 10 minutes, the fluorescence was recorded. Two control solutions without IgG, but with the same concentration of TOl3, were included, one including 4.55M urea, another without urea. From the previous chemical shift curve generated (seen in FIG. 16 (A)), 4.55 M urea is known to unfold approximately 60% of the IgG.

Series [4] can be described thus: Fluorescence excitation and emission spectra of dye freely dissolved in buffer. Type of series: physicochemical. The conditions noted are these: 50 mM Tris-HCl, pH 7.8, 10 μM dye, room temperature. On the procedure: as §1
The test system of series [5] is Rabbit-anti-goat IgG. Kind of series: Chemical shift assay based on internal tryptophan fluorescence. Type of series: biochemical. The conditions noted are these: 4.55 M urea; from chemical shift curve FIG. 16 (A). As to the method:
(A) Chemical shift assay based on internal tryptophan fluorescence: Rabbit-anti-goat IgG (Pel Freeze) in 1×PBS buffer of pH 7.4 was mixed with urea in 1×PBS to achieve a final IgG concentration of 0.25 mg/mL. After mixing on ice for 10 minutes, the fluorescence emission intensity at 330 nm was recorded by exciting at 280 nm using a MD-5020 fluorimeter (Phototechnology International). A chemical shift curve was plotted based on internal tryptophan fluorescence intensity at each given urea concentration. Urea denatures proteins but prevents them from aggregating.

In a further series the target is T4, ß-lactoglobulin (Bos taurus, UniProt P02754).
T4 sequence (P02754 17-178): T3 sequence (P02754 17-178)
Put plainly: Chaperone activity assay: heat-induced BLG aggregation, Tol3/S25 readout. It counts as biochemical. The note with it: 0.4 mg/ml HSP 27, 8 mg/ml ß-lactoglobulin (mass ratio 1:20), 68° C. As to the method: Aggregation of ß-lactoglobulin was monitored in the presence or absence of the chaperone HSP 27. Aggregation of 8 mg/ml ß-lactoglobulin was monitored using 1.25 μM Tol3 and 1.25 μM S25 in PBS, pH 7.4 with 2.5 mM EDTA and 0.05% sodium azide. When the chaperone HSP 27 was added it was added to a final concentration of 0.4 mg/ml. HSP 27 was also run in the absence of R-lactoglobulin as a control. Aggregation was initiated by heating the protein solution to 68° C. in a 96 well half-volume clear plate (Biomol international, Inc). The fluorescence intensity was then recorded every 2 minutes, with shaking between reads. The excitation wavelength was set to 550 nm and the emission was set to 610 nm on a BMG Fluorstar plate reader. The fluorescence intensity of the starting point was subtracted from the remaining points. […] Since Hsp 27 is binding with unfolded BLG intermediate, thus preventing protein aggregation, these styryl cyanine dyes are detecting protein aggregation, as opposed to unfolding.

T1 sequence (P00698 19-147): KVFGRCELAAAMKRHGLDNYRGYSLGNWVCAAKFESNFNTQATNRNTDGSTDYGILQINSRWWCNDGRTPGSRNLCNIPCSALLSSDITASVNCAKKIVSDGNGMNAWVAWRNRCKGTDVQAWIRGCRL

In the case of `CC(=O)N[C@H]1[C@H](O[C@H]2[C@H](O)[C@@H](NC(C)=O)C(O)O[C@@H]2CO)O[C@H](CO)[C@@H](O[C@@H]2O[C@H](CO)[C@@H](O)[C@H](O)[C@H]2NC(C)=O)[C@@H]1O` (stereo partly drawn) [Chitotriose, N,N′,N″-triacetyl-chitotriose], on Hen Egg White Lysozyme, the “Effect on Lysozyme aggregation” value is recorded as “inhibits Lysozyme aggregation”.
As to `Cc1c[n+](CCCCCCCCCC[n+]2ccc(/C=C/c3ccc(N(C)C)cc3)c(C)c2)ccc1/C=C/c1ccc(N(C)C)cc1` [TOL3], the “In the presence of aggregate: Emission wavelength” value in series [1] worked out at 603 nm. In addition, the “In the presence of aggregate: Excitation wavelength” value in series [1] stood at 511 nm. Also, the “Detection of BLG thermal shift (melting) peak” value at β-lactoglobulin (BLG) is “able to detect BLG thermal shift peaks”. The “Fluorescence enhancement (aggregate/native IgG)” value in series [2] (Ammonium Sulfate, 10 mM) is reported as 15.6 fold; in series [2] (Ammonium Sulfate, 100 mM), 13.4 fold; in series [2] (Ammonium Sulfate, 300 mM), 16.9 fold; in series [2] (Arginine, 200 mM) it was 18.6 fold; in series [2] (Arginine, 500 mM), 17.6 fold; in series [2] (Ascoric Acid, 1 mM) it was 15.4 fold. In addition, the “Fluorescence enhancement (aggregate/native IgG)” value came to 14.9 fold in series [2] (Calcium Chloride, 10 mM); 13.9 fold in series [2] (Calcium Chloride, 50 mM); 14.8 fold in series [2] (Calcium Chloride, 200 mM); 13.8 fold in series [2] (DTT, 1 mM); 16.3 fold in series [2] (Glycine, 0.5%); 15.5 fold in series [2] (Glycine, 2%). Besides, the “Fluorescence enhancement (aggregate/native IgG)” value in series [2] (Lactose, 100 mM) worked out at 19.9 fold; in series [2] (Lactose, 300 mM), 34.6 fold; in series [2] (Mannitol, 100 mM), 17.5 fold; in series [2] (Mannitol, 300 mM) it was 25.2 fold; in series [2] (Mannitol, 600 mM) it was 27.5 fold; in series [2] (Sodium Chloride, 10 mM), 16.0 fold. In addition, the “Fluorescence enhancement (aggregate/native IgG)” value turned out to be 16.2 fold in series [2] (Sodium Chloride, 100 mM); 17.4 fold in series [2] (Sodium Chloride, 1000 mM); 20.0 fold in series [2] (Sorbitol, 100 mM); 19.2 fold in series [2] (Sorbitol, 300 mM); 29.3 fold in series [2] (Sorbitol, 600 mM); 18.9 fold in series [2] (Trehalose, 100 mM). The “Fluorescence enhancement (aggregate/native IgG)” value in series [2] (Trehalose, 300 mM) was 20.1 fold; in series [2] (Trehalose, 600 mM) it was 30.4 fold; in series [2] (Tween 20, 0.01%) it was 8.5 fold; in series [2] (Tween 20, 0.2%), 3.4 fold; in series [2] (X100, 0.01%), 6.2 fold; in series [2] (X100, 0.2%), 3.4 fold. In addition, the “Fluorescence enhancement (aggregate/native IgG)” value in series [2] (X100, 1%) turned out to be 1.9 fold. The “Fluorescence enhancement (aggregate/native IgG), Average” value in series [2] (Average over all excipient conditions) came out at 17.6 fold. Moreover, the “Fluorescence enhancement with IgG aggregates relative to controls without IgG” value in the series with Rabbit-anti-goat IgG [3] (aggregated IgG 0.033 mg/mL) is given as “significant fluorescence enhancement”. Further, in the series on Rabbit-anti-goat IgG [3] (monomeric IgG 0.033 mg/mL), the “Fluorescence enhancement with unfolded IgG monomer relative to controls without IgG” value was “insignificant fluorescence enhancement”. Besides, the “Dye freely dissolved in buffer: Emission wavelength” value in series [4] was found to be 611 nm. In series [4], the “Dye freely dissolved in buffer: Excitation wavelength” value was determined as 471 nm.
As for `NC(N)=O` [urea], the IgG unfolded entry in the series on Rabbit-anti-goat IgG [5] is recorded as “approximately 60%”.
Consider Hsp 27: heat shock protein, chaperone, for which, in the series with ß-lactoglobulin, the “Effect on heat-induced aggregation of BLG” value was “significantly prevent the aggregation of BLG”.
